ChEMBL document CHEMBL1201862, “PubChem BioAssay data set” (2004)
Activity calls are given as the source filed them.

Assays:
Format in all cases: functional
[1] = biological target: Cyclin-dependent kinase 1 (Homo sapiens, UniProt P06493);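 note: Kinome-wide panel profiling, with the target listed as panel member CDC2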
[2] = biological target: Tyrosine-protein kinase BTK (Homo sapiens, UniProt Q06187)
[3] = biological target: Death-associated protein kinase 3 (Homo sapiens, UniProt O43293);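 note: measured as one member of a kinome-wide profiling panel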
Death-associated protein kinase 3, sequence (O43293 whole entry): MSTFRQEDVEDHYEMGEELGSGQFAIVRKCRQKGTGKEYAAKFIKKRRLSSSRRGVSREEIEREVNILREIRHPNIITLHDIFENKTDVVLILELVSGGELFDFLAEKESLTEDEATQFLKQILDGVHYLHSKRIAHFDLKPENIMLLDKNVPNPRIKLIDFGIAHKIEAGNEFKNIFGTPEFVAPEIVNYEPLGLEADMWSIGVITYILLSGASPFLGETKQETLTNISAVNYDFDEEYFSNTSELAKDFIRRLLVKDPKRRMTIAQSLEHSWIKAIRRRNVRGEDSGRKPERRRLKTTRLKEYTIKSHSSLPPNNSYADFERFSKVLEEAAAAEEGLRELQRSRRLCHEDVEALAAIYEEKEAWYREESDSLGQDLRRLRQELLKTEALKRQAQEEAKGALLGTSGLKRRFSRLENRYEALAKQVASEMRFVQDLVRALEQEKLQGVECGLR

[4] = biological target: Testis-specific serine/threonine-protein kinase 1 (Homo sapiens, UniProt Q9BXA7)
[5] = biological target: Cyclin-dependent kinase 7 (Homo sapiens, UniProt P50613);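 note: value comes from a kinome-wide kinase profiling panel in which CDK7 is one member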
Cyclin-dependent kinase 7, sequence (P50613 whole entry): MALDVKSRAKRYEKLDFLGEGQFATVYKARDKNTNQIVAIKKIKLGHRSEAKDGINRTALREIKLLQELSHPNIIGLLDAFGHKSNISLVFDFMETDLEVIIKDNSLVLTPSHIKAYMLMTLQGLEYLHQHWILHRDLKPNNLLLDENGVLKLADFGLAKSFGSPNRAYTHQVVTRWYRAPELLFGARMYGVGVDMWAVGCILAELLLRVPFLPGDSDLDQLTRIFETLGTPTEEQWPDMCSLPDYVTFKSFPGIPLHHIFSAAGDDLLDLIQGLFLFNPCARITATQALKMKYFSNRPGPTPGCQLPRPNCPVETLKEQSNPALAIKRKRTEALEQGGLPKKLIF

[6] = biological target: Tyrosine-protein kinase ABL1 (Homo sapiens, UniProt P00519)
Tyrosine-protein kinase ABL1, sequence (P00519 whole entry): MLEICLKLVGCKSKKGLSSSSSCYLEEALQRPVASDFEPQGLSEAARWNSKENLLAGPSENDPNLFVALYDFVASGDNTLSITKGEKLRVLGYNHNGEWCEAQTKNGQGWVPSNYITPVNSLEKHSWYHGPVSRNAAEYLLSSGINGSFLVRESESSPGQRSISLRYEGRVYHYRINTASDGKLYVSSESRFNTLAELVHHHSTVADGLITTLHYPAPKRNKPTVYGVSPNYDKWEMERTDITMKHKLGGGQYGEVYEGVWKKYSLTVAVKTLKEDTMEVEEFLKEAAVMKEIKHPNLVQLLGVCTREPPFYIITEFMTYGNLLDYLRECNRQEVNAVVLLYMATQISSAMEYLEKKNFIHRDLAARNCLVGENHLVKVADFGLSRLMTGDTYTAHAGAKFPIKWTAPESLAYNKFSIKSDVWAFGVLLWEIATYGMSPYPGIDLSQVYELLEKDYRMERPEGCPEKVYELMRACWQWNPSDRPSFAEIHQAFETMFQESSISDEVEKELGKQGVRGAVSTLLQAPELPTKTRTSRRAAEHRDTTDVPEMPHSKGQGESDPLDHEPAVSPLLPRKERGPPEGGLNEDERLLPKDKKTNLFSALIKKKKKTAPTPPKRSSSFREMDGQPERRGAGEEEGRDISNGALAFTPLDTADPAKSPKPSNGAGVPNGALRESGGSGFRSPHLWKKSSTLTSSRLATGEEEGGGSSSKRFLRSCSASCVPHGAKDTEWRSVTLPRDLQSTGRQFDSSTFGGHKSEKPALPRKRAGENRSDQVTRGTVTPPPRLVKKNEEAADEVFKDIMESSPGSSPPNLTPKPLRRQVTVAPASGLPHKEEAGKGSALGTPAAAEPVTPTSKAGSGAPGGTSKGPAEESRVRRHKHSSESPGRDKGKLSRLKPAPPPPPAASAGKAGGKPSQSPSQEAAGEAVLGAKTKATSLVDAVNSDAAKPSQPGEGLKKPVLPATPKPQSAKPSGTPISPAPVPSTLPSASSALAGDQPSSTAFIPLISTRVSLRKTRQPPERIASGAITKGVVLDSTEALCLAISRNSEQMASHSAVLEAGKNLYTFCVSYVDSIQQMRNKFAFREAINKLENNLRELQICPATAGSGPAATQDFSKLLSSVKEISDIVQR

[7] = biological target: Cyclin-dependent kinase 9 (Homo sapiens, UniProt P50750);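 note: value from the CDK9 entry of a kinome-spanning kinase panel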
Cyclin-dependent kinase 9, sequence (P50750 whole entry): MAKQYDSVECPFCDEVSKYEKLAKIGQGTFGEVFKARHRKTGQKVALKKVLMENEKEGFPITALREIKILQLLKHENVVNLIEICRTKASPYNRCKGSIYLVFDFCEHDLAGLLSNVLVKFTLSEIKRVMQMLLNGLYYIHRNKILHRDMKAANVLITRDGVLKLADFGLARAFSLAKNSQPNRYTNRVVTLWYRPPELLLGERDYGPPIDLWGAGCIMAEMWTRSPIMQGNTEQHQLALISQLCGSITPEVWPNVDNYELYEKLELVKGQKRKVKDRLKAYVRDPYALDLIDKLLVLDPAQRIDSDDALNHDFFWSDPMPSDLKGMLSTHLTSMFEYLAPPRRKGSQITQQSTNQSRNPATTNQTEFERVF

[8] = biological target: Glycogen synthase kinase-3 beta (Homo sapiens, UniProt P49841);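 note: value comes from a broad kinome profiling panel, with GSK3B as the panel member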
Glycogen synthase kinase-3 beta, sequence (P49841 whole entry): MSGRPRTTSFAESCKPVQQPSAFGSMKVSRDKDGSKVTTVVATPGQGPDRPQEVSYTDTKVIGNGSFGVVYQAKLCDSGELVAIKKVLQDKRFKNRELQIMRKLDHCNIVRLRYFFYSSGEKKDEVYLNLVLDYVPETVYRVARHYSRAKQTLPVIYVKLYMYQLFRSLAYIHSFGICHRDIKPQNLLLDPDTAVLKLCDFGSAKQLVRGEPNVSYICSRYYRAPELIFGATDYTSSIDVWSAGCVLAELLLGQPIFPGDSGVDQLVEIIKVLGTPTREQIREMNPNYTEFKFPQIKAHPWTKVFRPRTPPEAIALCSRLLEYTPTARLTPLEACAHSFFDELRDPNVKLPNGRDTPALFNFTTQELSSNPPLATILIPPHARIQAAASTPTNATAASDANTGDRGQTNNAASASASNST

[9] = biological target: Protein kinase C theta type (Homo sapiens, UniProt Q04759); assay: Navigating the Kinome. Panel member name: PRKCQ
[10] = biological target: Tyrosine-protein kinase Fyn (Homo sapiens, UniProt P06241)
Tyrosine-protein kinase Fyn, sequence (P06241 whole entry): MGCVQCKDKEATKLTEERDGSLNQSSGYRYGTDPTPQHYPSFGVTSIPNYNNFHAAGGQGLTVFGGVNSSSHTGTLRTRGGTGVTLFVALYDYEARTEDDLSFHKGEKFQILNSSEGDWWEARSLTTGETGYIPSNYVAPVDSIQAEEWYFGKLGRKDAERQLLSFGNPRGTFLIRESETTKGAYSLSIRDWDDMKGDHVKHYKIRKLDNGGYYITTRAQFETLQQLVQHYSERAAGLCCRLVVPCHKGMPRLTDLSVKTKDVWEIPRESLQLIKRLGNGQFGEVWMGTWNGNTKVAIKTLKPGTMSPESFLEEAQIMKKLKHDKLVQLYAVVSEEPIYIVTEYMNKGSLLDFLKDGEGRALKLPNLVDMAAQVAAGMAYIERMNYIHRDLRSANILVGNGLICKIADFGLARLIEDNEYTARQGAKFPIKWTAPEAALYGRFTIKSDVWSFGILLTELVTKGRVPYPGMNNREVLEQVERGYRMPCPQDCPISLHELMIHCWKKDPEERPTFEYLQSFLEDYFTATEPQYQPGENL

[11] = biological target: Rho-associated protein kinase 1 (Homo sapiens, UniProt Q13464);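 note: measured within a broad kinome-wide panel profiling many kinases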
Rho-associated protein kinase 1, sequence (Q13464 whole entry): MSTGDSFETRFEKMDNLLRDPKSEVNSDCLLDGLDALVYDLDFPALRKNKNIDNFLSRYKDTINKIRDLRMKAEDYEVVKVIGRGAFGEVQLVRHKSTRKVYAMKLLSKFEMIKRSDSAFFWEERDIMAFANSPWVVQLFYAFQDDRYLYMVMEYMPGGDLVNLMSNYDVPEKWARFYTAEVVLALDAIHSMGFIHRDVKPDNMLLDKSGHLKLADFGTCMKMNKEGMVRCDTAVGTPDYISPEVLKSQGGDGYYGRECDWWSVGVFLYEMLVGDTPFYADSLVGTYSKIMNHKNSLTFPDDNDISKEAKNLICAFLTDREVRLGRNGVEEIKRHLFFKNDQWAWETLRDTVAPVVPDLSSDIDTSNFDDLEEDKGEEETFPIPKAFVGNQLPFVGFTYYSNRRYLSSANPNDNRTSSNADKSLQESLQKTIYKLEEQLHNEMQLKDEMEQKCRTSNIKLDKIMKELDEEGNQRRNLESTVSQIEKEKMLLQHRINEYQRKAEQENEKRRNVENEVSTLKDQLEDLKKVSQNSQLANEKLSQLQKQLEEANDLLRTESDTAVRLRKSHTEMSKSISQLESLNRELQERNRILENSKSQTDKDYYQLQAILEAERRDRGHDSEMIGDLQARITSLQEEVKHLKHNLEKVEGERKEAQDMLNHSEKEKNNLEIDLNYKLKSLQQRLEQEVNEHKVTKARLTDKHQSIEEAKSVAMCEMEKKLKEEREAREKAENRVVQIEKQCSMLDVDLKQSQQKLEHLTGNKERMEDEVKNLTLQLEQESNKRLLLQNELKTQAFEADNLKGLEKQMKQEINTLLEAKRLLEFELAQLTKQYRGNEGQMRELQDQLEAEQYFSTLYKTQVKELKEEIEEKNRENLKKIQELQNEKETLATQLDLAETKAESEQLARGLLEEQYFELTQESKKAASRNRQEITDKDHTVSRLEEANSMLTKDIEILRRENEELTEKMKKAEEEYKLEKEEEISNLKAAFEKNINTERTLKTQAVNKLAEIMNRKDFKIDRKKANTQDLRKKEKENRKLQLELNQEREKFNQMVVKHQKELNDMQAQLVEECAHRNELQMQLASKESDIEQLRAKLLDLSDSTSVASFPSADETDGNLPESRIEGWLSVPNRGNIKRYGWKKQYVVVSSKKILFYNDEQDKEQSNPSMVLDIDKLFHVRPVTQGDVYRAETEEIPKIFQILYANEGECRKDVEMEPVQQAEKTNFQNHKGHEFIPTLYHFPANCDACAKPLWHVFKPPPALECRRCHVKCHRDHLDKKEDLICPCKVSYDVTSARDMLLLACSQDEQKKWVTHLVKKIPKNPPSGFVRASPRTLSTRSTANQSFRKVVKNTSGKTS

[12] = biological target: T1, Serine/threonine-protein kinase TAO1 (Homo sapiens, UniProt Q7L7X3)
T1 sequence (Q7L7X3 whole entry): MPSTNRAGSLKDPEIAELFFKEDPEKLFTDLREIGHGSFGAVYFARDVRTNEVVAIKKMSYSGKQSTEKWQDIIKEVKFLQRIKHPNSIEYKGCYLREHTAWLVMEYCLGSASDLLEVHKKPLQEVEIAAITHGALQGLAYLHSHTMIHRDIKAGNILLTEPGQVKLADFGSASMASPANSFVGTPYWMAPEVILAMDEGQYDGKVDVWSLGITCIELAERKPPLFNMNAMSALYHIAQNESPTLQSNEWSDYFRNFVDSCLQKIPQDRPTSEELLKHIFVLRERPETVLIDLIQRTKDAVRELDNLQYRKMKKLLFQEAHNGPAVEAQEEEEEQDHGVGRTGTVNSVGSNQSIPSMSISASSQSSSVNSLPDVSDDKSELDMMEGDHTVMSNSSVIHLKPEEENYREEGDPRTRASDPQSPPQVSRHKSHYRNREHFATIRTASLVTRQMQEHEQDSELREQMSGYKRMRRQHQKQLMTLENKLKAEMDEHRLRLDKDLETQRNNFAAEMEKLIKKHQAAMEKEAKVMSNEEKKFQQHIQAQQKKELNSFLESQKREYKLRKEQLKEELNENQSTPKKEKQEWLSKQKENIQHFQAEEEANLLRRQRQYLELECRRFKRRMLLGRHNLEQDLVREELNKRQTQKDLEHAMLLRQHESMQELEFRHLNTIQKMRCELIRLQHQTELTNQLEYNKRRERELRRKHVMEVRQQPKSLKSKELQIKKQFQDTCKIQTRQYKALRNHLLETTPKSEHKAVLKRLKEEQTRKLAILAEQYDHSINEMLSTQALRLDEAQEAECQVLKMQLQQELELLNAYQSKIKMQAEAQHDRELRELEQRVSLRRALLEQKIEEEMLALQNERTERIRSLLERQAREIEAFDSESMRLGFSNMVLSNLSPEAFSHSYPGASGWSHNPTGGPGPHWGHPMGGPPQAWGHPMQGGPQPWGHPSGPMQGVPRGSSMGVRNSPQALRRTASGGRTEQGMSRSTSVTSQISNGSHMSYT

[13] = biological target: Mitogen-activated protein kinase 8 (Homo sapiens, UniProt P45983);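 note: value comes from one member of a kinome-wide kinase profiling panel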
Mitogen-activated protein kinase 8, sequence (P45983 whole entry): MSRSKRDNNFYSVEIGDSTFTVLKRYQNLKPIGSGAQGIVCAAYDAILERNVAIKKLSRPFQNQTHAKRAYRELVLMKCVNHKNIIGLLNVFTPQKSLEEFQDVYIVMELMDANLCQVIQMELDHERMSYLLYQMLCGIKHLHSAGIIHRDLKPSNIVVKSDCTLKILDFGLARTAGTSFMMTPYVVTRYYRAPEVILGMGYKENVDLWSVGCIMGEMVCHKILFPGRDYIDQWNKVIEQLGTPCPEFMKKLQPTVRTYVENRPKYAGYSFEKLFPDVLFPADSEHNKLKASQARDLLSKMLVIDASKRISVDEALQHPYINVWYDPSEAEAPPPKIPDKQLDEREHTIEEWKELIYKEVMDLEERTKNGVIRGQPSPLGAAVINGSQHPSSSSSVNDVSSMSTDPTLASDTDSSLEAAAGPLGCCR

[14] = biological target: Megakaryocyte-associated tyrosine-protein kinase (Homo sapiens, UniProt P42679);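 note: affinity measured as one member of a kinase panel (Navigating the Kinome) against MATK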
[15] = biological target: Serine/threonine-protein kinase N2 (Homo sapiens, UniProt Q16513)
[16] = biological target: T2, Tyrosine-protein kinase JAK3 (Homo sapiens, UniProt P52333)
T2 sequence (P52333 whole entry): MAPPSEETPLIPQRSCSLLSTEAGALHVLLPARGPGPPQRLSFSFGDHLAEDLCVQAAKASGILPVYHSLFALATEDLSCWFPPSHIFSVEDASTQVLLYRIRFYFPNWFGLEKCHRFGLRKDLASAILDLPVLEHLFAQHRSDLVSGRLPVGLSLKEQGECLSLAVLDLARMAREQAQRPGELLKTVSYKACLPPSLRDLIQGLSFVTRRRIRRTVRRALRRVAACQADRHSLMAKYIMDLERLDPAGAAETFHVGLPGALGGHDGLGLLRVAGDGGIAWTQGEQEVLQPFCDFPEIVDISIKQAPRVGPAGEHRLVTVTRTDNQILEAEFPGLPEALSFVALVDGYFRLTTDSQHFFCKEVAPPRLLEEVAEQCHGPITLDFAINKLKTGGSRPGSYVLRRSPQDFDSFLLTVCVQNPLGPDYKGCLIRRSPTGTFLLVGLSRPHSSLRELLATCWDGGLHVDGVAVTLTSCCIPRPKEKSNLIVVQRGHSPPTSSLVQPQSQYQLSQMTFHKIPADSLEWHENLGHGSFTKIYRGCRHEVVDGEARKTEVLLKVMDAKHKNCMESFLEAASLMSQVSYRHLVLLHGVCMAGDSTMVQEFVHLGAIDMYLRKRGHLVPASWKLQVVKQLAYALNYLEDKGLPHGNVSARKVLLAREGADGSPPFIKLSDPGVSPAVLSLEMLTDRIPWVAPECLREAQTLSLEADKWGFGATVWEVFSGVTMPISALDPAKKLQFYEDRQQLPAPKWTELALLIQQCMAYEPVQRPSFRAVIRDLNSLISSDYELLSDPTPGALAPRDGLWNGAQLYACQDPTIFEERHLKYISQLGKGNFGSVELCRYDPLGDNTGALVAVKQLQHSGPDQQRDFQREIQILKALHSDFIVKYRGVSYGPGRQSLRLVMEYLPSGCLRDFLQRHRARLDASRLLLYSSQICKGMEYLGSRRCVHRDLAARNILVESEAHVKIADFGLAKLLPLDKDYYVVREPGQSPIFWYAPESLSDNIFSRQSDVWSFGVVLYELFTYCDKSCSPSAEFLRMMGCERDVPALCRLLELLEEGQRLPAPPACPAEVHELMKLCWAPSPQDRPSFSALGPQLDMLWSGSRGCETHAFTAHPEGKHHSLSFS

SMILES | Ki [2] | Ki [3] | Ki [5] | Ki [6] | Ki [7] | Ki [8] | Ki [9] | Ki [10] | Ki [11] | Ki [12] | Ki [13] | Ki [16] | further results
OC1CCC(Nc2nc(Cl)cc(-c3c[nH]c4ncccc34)n2)CC1 (stereo unspecified) | > 1.26 µM (inactive) | 0.0794 µM (active) | 0.251 µM (active) | 0.631 µM (active) | 0.00126 µM (active) | 0.0501 µM (active) | 0.0158 µM (active) | > 0.794 µM (inactive) | 0.00794 µM (active) | 0.501 µM (active) | 0.251 µM (active) | 0.0501 µM (active) | Ki [1]: 0.0398 µM (active); pKi [1]: 7.4; pKi [3]: 7.1; Ki [4]: 0.126 µM (active); pKi [4]: 6.9; pKi [5]: 6.6; pKi [6]: 6.2; pKi [7]: 8.9; pKi [8]: 7.3; pKi [9]: 7.8; pKi [11]: 8.1; pKi [12]: 6.3; pKi [13]: 6.6; Ki [14]: > 2 µM (inactive); Ki [15]: 0.00794 µM (active); pKi [15]: 8.1; pKi [16]: 7.3
COc1cccc(CNC(=O)c2cnc(-c3ccncc3)nc2)c1 | > 6.31 µM (inactive) | > 5.01 µM (inactive) | > 3.98 µM (inactive) | > 3.98 µM (inactive) | > 1.58 µM (inactive) | > 3.98 µM (inactive) | 1 µM (active) | > 6.31 µM (inactive) | 0.0251 µM (active) | > 6.31 µM (inactive) | > 5.01 µM (inactive) | > 5.01 µM (inactive) | –
